“Also recorded” adds a separate entry of the source.
Tests used:
BT20 cells [1] = test: MTT cell growth assay, BT20 cells; format: cell-based, human; conditions: 24 h
Procedure: FIG. 1A: LLC-PK1 cells, BT20 cells, and DU145 cells were subcultured in 96-well plates (10,000 cells/well) and serum starved. […] Cells were solublized by adding 100 μl/well detergent provided by ATCC after 90 min of incubation and OD570 was then measured.
(§1) MTT assay for measuring cell proliferation: Cells were sub-cultured in 96 well plates at 10,000 cells/well in 100 μl culture medium. […] Ten μl MTT reagent (3-4,5-dimethylthiazol-2-yl)-2,5-diphenyltetrazolium bromide) was added to each well for 90 min. The formazan crystal was dissolved with detergent and the OD value was measured at 570 nm.

C2-9 cells = test: MTT cell growth assay, caveolin-1 knock-down C2-9 cells; format: cell-based, pig; conditions: C2-9 caveolin-1 knockdown cells
Procedure: as §1

Na/K-ATPase α1 [2] = target: T1, Na/K-ATPase α1 (Sus scrofa, UniProt P05024); test: Na/K-ATPase α1 expression, caveolin-1 knock-down C2-9 cells; format: cell-based, pig; conditions: C2-9 caveolin-1 knockdown cells, 5 and 10 nM ouabain, 72 h
T1 construct: endogenous in cells; host or cells: LLC-PK1 (ATCC) and its caveolin-1 knock-down line C2-9

Na/K-ATPase α1 [3] = target: T2, Na/K-ATPase α1 (Mus musculus, UniProt Q8VDN2); test: Na/K-ATPase α1 expression, SYF cells; format: cell-based; conditions: SYF cells (Src, Yes, Fin knocked out), 0.5 and 1.0 μM ouabain
T2 construct: endogenous in cells; host or cells: SYF cells; SYF cells rescued by c-Src
Description: (§2) To further understand the molecular mechanism of ouabain-induced up-regulation of α1, the inventors first addressed the role of Src.

Na/K-ATPase α1 [4] = target: T2, Na/K-ATPase α1; test: Na/K-ATPase α1 expression, SYF cells rescued by c-Src; format: cell-based; conditions: 0.5 and 1.0 μM ouabain
Description: as §2

Akt [5] = test: Akt phosphorylation, PY-17 cells; format: cell-based, pig; conditions: ouabain, data not shown
A4-11 cells = test: MTT cell growth assay, Na/K-ATPase knock-down A4-11 cells; format: cell-based, pig; conditions: ouabain, 16 h
Procedure: as §1

Na/K-ATPase α1 [6] = target: T1, Na/K-ATPase α1; test: Na/K-ATPase α1 expression by Western blot, LLC-PK1 cells; format: cell-based, pig
Procedure: FIG. 7A: LLC-PK1 cells were pre-treated with 10 nM rapamycin or 50 μM LY294002 for 30 min. […] The cell lysates were analyzed for Na/K-ATPase α1 using Western blot.

Na/K-ATPase α1 [7] = target: T3, Na/K-ATPase α1 (Homo sapiens, UniProt P05023); test: Na/K-ATPase α1 degradation with cycloheximide, BT-20 cells; format: cell-based; parameters: endogenous in cells; host or cells: BT20; conditions: cycloheximide pre-treatment, 10 nM ouabain for 6, 16 and 24 h
Procedure: FIG. 6C: BT20 cells were treated as in panel B and assayed for Na/K-ATPase α1. *p<0.05.

DU145 cells = test: Cell growth curve (cell counting), DU145 cells; format: cell-based, human; conditions: 10 nM ouabain
Procedure: (§3) FIG. 1B: The above three cell lines were subcultured in 12-well plates (50,000 cells/well) and serum starved.
(§4) Cell growth curve and cell cycle measurement: Cells were sub-cultured in 12 well plates at 50,000/well in 1 ml culture medium for 24 h. […] At each indicated time point, three wells of control or treated cells were trypsinized and counted. For cell cycle measurement, cells were trypsinized and re-suspended in Citrate buffer (8.55% sucrose, 1.18% Na citrated, 5% DMSO, pH 7.6), and stained with propidium iodide (PI). The stained cells were then analyzed by Flow Cytometry.

Na/K-ATPase α1 mRNA [8] = test: Na/K-ATPase α1 mRNA by RT-PCR, LLC-PK1 cells; format: cell-based, pig; conditions: 10 nM ouabain, 24 h
Procedure: (§5) Total RNA was extracted and applied for RT-PCR to probe Na/K-ATPase α1 as described in the Experimental Procedures section.
(§6) Quantitative RT-PCR: The cells were seeded in 6-cm dishes and serum-starved for 24 h after the confluence reached 90%. […] Total RNA was extracted using TRIzol and subjected to quantitative RT-PCR analysis. The assays were performed on the AB 7500 real time PCR system with the following protocol: 1 cycle (6 min at 95° C.), 40 cycles (30 s at 95° C., 30 s at 52° C., 30 s at 72° C., and 1 min at 85° C.), followed by a dissociation stage to ensure a single product. The reactions are in a total volume of 25 μl, including 1.25 µl of Sybr Green (Invitrogen), 0.125 µl of DNA polymerase (Denville), 2.5 µl of dNTP (Invitrogen), 10 ng of cDNA. Primer pairs were used at 5 μM concentration, and the sequences are:
(§7) The relative Na/K-ATPase al gene expression was calculated by comparative threshold (CT) method (ΔΔCT). To normalize the difference amounts of cDNA, GAPDH was used as an internal control.

Na/K-ATPase α1 [9] = target: T3, Na/K-ATPase α1; test: Na/K-ATPase α1 endocytosis by confocal immunostaining, BT20 cells; format: cell-based; parameters: endogenous in cells; host or cells: BT20; conditions: 10 nM ouabain
Procedure: Na/K-ATPase al was immunostained and visualized using Leica confocal microscope. The red arrows indicate the endocytosed vesicles containing Na/K-ATPase α1.
The cells were fixed with ice-cold methanol for 15 min and blocked with Signal Enhancer from Invitrogen. Monoclonal anti-Na/K-ATPase α1 antibody was then incubated with the cells overnight at 4° C. After 3 washes, a secondary Alexa 488-conjugated anti-mouse antibody was added and incubated for 2 h at room temperature. The coverslip was washed, mounted and imaged using a Leica confocal microscope.

Na/K-ATPase α1 [10] = target: T3, Na/K-ATPase α1; test: Na/K-ATPase α1 expression by Western blot, BT20 cells; format: cell-based; parameters: endogenous in cells; host or cells: BT20, DU145, MDA-MB-435s
Na/K-ATPase β1 = Na/K-ATPase β1 expression by Western blot, LLC-PK1 cells; format: cell-based, pig; conditions: 10 nM ouabain, 24 h
Description: Na/K-ATPase, but also in the formation of tight junctions and in suppression of tumor cell growth.

Akt [11] = test: Akt phosphorylation (pAkt) by Western blot, BT20 cells; format: cell-based, human; conditions: ouabain 15 min
Na/K-ATPase α1 mRNA [12] = test: Na/K-ATPase α1 mRNA by RT-PCR, DU145 cells; format: cell-based, human; conditions: 10 nM ouabain, 24 h
Procedure: as §5, §6, §7

BT20 cells [13] = test: Cell growth curve (cell counting), BT20 cells; format: cell-based, human
Procedure: as §3, §4

C[C@@H]1O[C@@H](O[C@H]2C[C@@H](O)[C@]3(CO)[C@H]4[C@H](O)C[C@]5(C)[C@@H](C6=CC(=O)OC6)CC[C@]5(O)[C@@H]4CC[C@]3(O)C2)[C@H](O)[C@H](O)[C@H]1O [ouabain]
effect on cell growth (MTT) (BT20 cells [1]; 10-50 nM ouabain): significant inhibition of cell growth | stimulatory effect on cell growth (MTT) (BT20 cells [1]; different concentrations of ouabain): failed to detect any stimulatory effect | ouabain-induced cell growth response (MTT) (C2-9 cells): abolished ouabain-induced cell growth stimulation | ouabain-induced increases in α1 expression (Na/K-ATPase α1 [2]): completely abolished ouabain-induced increases in α1 expression | ouabain-induced α1 expression (Na/K-ATPase α1 [3]): completely blocked ouabain-induced α1 expression | induction of α1 expression (Na/K-ATPase α1 [4]): three-fold induction | Akt phosphorylation (Akt [5]): no effect on Akt phosphorylation | growth stimulation (MTT) (A4-11 cells): No growth stimulation was detected | α1 expression with ouabain in the presence of rapamycin (Na/K-ATPase α1 [6]; 10 nM rapamycin pre-treatment, 10 nM ouabain 24 h): further decrease in the expression of al; also recorded: further decrease in the expression of a1 | Na/K-ATPase α1 expression (Na/K-ATPase α1 [6]; ouabain 24 h or 72 h exposure): induction of α1 expression | degradation of Na/K-ATPase α1 subunit (Na/K-ATPase α1 [7]): more degradation of al subunit; also recorded: more degradation of the a1 subunit | block of cell growth (cell counting) (DU145 cells): completely block the growth | levels of α1 mRNA (Na/K-ATPase α1 mRNA [8]): no effect on levels of α1 mRNA | endocytosis of Na/K-ATPase α1 (α1-positive vesicles) (Na/K-ATPase α1 [9]): many al-positive vesicles were accumulated | cellular amount of Na/K-ATPase α1 (Na/K-ATPase α1 [10]; BT20 cells, ouabain 24 h or 72 h exposure): reduced the cellular amount of α1 | Na/K-ATPase α1 expression, 72 h versus 24 h (Na/K-ATPase α1 [10]; BT-20 cells, after 72 h of ouabain exposure): further reduction in al expression | Na/K-ATPase β1 expression (Na/K-ATPase β1): modest increase in β1 expression | Akt phosphorylation (Akt [11]): failed to do so | levels of α1 mRNA (Na/K-ATPase α1 mRNA [12]): no effect on levels of α1 mRNA | block of cell growth (cell counting) (BT20 cells [13]; 50 nM ouabain): completely block the growth | cell number as a function of time (BT20 cells [13]; 10 and 50 nM ouabain): significantly reduced the number of BT20 cells

Reference: patent US20110306570A1, “Na/K-Atpase Expression as an Indicator for the Treatment of Cancer” (UNIVERSITY OF TOLEDO, priority 2008, published 2011)
